Source: patent US11440907B1 (Merck Patent GmbH, priority 2018, dated 2022)

Key:
Format in all cases: cell-based
[1] = test system: XBP1(u)-luciferase splicing reporter in HepG2 hepatoma cells; assay: HepG2 XBP1 reporter assay (XBP1(u)-Luc); conditions: Homo sapiens, 6 hours after compound addition, Table 3, read-out: XBP1-luc HepG2 1 EC50
[2] = test system: β-catenin-TCF-mediated reporter transcription activity in Colo 205 cells; assay: Colo 205 reporter assay (TCF/LEF promoter-driven firefly luciferase); conditions: Homo sapiens; Colo 205 TCF/LEF luciferase reporter, 5 hours after compound addition, 384 well; read-out: Colo205 IC50
[3] = test system: intracellular calcium flux in Colo-205 cells; assay: Calcium flux assay (FLIPR Calcium 5 Assay Kit, FLIPR3); conditions: Homo sapiens, 0.6 h, calcium flux measured over 36 minutes, read-out: Colo 205 Calcium Flux assay 384w Boston Ca assay FLIPR3 Colo EC50
Description: Compounds described herein induced ER stress by causing intracellular calcium flux. Calcium flux was measured in Colo-205 cells using the FLIPR® Calcium 5 Assay Kit according to manufacturer's protocol (Molecular Devices, Cat. #R8186) on a FLIPR3 system (Molecular Devices). Calcium flux is measured over 36 minutes. The Colo-205 calcium flux assay data are summarized in Table 3: A<0.6 μM; 0.6 μM≤B<2.0 μM; 2.0 μM≤C<10.0 μM; D≥10.0 μM.

EC50 [1]	IC50 [2]	EC50 [3]	SMILES
< 0.6 µM	< 0.3 µM	< 0.6 µM	Cc1cc(N2CCCOC[C@@H]2c2ccc(CS(C)(=O)=O)cc2Cl)nc(N)n1 (single isomer, unassigned) [I-224]
0.6 to 2 µM	0.3 to 1 µM	< 0.6 µM	Cc1cc(N2CCCOCC2c2cc(Br)ccc2Cl)nc(N)n1 (stereo not drawn) [I-295]
< 0.6 µM	0.3 to 1 µM	< 0.6 µM	CCS(=O)(=O)c1ccc([C@H]2COCCCN2c2cc(C)nc(N)n2)c(Cl)c1 [I-183, 4-(3-(2-chloro-4-(ethylsulfonyl)phenyl)-1,4-oxazepan-4-yl)-6-methylpyrimidin-2-amine]
< 0.6 µM	< 0.3 µM	< 0.6 µM	Cc1cc(N2CCCOCC2c2ccc(N3CCCS3(=O)=O)cc2Cl)nc(N)n1 (racemic) [I-193, (+/−)-4-[3-[2-chloro-4-(1,1-dioxo-1,2-thiazolidin-2-yl)phenyl]-1,4-oxazepan-4-yl]-6-methyl-pyrimidin-2-amine]
0.6 to 2 µM	1 to 5 µM	< 0.6 µM	CCNC(=O)c1ccc(C2COCCCN2c2cc(C)nc(N)n2)c(Cl)c1 (racemic) [I-171, (+/−)-4-[4-(2-amino-6-methyl-pyrimidin-4-yl)-1,4-oxazepan-3-yl]-3-chloro-N-ethyl-benzamide]
< 0.6 µM	0.3 to 1 µM	< 0.6 µM	CCS(=O)(=O)c1ccc(C2COCCCN2c2cc(C)nc(N)n2)c(Cl)c1 (stereo not drawn) [I-297]
0.6 to 2 µM	0.3 to 1 µM	< 0.6 µM	C=C(C)c1ccc(C2COCCCN2c2cc(C)nc(N)n2)c(Cl)c1 (stereo not drawn) [I-299]
0.6 to 2 µM	0.3 to 1 µM	0.6 to 2 µM	COc1cc(Cl)ccc1C1CCCCCN1c1cc(C)nc(N)n1 (stereo not drawn) [I-20, 4-(2-(4-chloro-2-methoxyphenyl)azepan-1-yl)-6-methylpyrimidin-2-amine]
< 0.6 µM	0.3 to 1 µM	< 0.6 µM	COCC(=O)Nc1ccc(C2COCCCN2c2cc(C)nc(N)n2)c(Cl)c1 (racemic) [I-192, (+/−)-N-[4-[4-(2-amino-6-methyl-pyrimidin-4-yl)-1,4-oxazepan-3-yl]-3-chloro-phenyl]-2-methoxy-acetamide]
< 0.6 µM	< 0.3 µM	< 0.6 µM	CCC(=O)Nc1ccc([C@H]2COCCCN2c2cc(C)nc(N)n2)c(Cl)c1 (single isomer, unassigned) [I-204]
2 to 5 µM	0.3 to 1 µM	< 0.6 µM	CNC(=O)c1ccc([C@H]2COCCCN2c2cc(C)nc(N)n2)c(Cl)c1 [I-150, (S)-4-(4-(2-amino-6-methylpyrimidin-4-yl)-1,4-oxazepan-3-yl)-3-chloro-N-methylbenzamide]
< 0.6 µM	< 0.3 µM	< 0.6 µM	CC(=O)Nc1ccc([C@H]2COCCCN2c2cc(C)nc(N)n2)c(Cl)c1 (single isomer, unassigned) [I-162]
0.6 to 2 µM	0.3 to 1 µM	< 0.6 µM	Cc1cc(N2CCCOC[C@H]2c2cc(NC(=O)C(F)(F)F)ccc2Cl)nc(N)n1 (single isomer, unassigned) [I-176]
< 0.6 µM	< 0.3 µM	< 0.6 µM	Cc1cc(N2CCCOC[C@@H]2c2cc3nccn3cc2Cl)nc(N)n1 (single isomer, unassigned) [I-221, 4-[3-(6-chloroimidazo[1,2-a]pyridin-7-yl)-1,4-oxazepan-4-yl]-6-methyl-pyrimidin-2-amine]
0.6 to 2 µM	0.3 to 1 µM	< 0.6 µM	Cc1cc(N2CCCOCC2c2cc(-n3cccc3)ccc2Cl)nc(N)n1 (stereo not drawn) [I-300]

The remaining lines, values behind:

SMILES	EC50 [1]	IC50 [2]	EC50 [3]
Cc1cc(N2CCCOCC2c2cc(C(=O)NC3CC3)ccc2Cl)nc(N)n1 (racemic) [I-172, (+/−)-3-(4-(2-amino-6-methylpyrimidin-4-yl)-1,4-oxazepan-3-yl)-4-chloro-N-cyclopropylbenzamide]	2 to 5 µM	0.3 to 1 µM	< 0.6 µM
CCC(=O)Nc1ccc(C2COCCCN2c2cc(C)nc(N)n2)c(Cl)c1 (stereo not drawn) [I-306]	< 0.6 µM	0.3 to 1 µM	< 0.6 µM
CCNC(=O)c1ccc(Cl)c(C2COCCCN2c2cc(C)nc(N)n2)c1 (racemic) [I-173, (+/−)-3-[4-(2-amino-6-methyl-pyrimidin-4-yl)-1,4-oxazepan-3-yl]-4-chloro-N-ethyl-benzamide]	0.6 to 2 µM	0.3 to 1 µM	< 0.6 µM
Cc1cc(N2CCCOC[C@@H]2c2ccc(P(C)(C)=O)cc2Cl)nc(N)n1 [I-214, 4-[3-(2-chloro-4-dimethylphosphoryl-phenyl)-1,4-oxazepan-4-yl]-6-methyl-pyrimidin-2-amine]	2 to 5 µM	0.3 to 1 µM	< 0.6 µM
Cc1cc(N2CCCOC[C@@H]2c2ccc(NC(=O)C3(O)CC3)cc2Cl)nc(N)n1 (single isomer, unassigned) [I-197]	< 0.6 µM	0.3 to 1 µM	< 0.6 µM
CCc1cc(N2CCCCCC2c2ccccc2Cl)nc(N)n1 (racemic) [I-17, (+/−)-4-(2-(2-chlorophenyl)azepan-1-yl)-6-ethylpyrimidin-2-amine]	< 0.6 µM	0.3 to 1 µM	0.6 to 2 µM
Cc1cc(N2CCCOCC2c2cc3nccn3cc2Cl)nc(N)n1 (racemic) [I-191, 4-(3-(6-chloroimidazo[1,2-a]pyridin-7-yl)-1,4-oxazepan-4-yl)-6-methylpyrimidin-2-amine]	0.6 to 2 µM	0.3 to 1 µM	< 0.6 µM
COCc1ccc(C2COCCCN2c2cc(C)nc(N)n2)c(Cl)c1 (racemic) [I-205, (+/−)-4-[3-[2-chloro-4-(methoxymethyl)phenyl]-1,4-oxazepan-4-yl]-6-methyl-pyrimidin-2-amine]	< 0.6 µM	0.3 to 1 µM	< 0.6 µM
Cc1cc(N2CCCOCC2c2cc(NC(=O)C(F)(F)F)ccc2Cl)nc(N)n1 (single isomer, unassigned) [I-177, N-(3-(4-(2-amino-6-methylpyrimidin-4-yl)-1,4-oxazepan-3-yl)-4-chlorophenyl)-2,2,2-trifluoroacetamide]	< 0.6 µM	< 0.3 µM	< 0.6 µM
CNC(=O)c1ccc(Cl)c([C@@H]2COCCCN2c2cc(C)nc(N)n2)c1 [I-181]	< 0.6 µM	< 0.3 µM	< 0.6 µM
Cc1cc(N2CCCOC[C@H]2c2ccc(NS(C)(=O)=O)cc2Cl)nc(N)n1 (single isomer, unassigned) [I-179, N-[4-[4-(2-amino-6-methyl-pyrimidin-4-yl)-1,4-oxazepan-3-yl]-3-chloro-phenyl]methanesulfonamide]	< 0.6 µM	< 0.3 µM	< 0.6 µM
Cc1cc(N2CCCOC[C@@H]2c2ccc(N3CCOCC3)cc2Cl)nc(N)n1 [I-216, 4-[(3S)-3-(2-chloro-4-morpholino-phenyl)-1,4-oxazepan-4-yl]-6-methyl-pyrimidin-2-amine]	< 0.6 µM	< 0.3 µM	< 0.6 µM
Cc1cc(N2CCCOCC2c2ccc(CS(C)(=O)=O)cc2Cl)nc(N)n1 (racemic) [I-208, (+/−)-4-(3-(2-chloro-4-((methylsulfonyl)methyl)phenyl)-1,4-oxazepan-4-yl)-6-methylpyrimidin-2-amine]	< 0.6 µM	< 0.3 µM	< 0.6 µM
COC1CCN(c2ccc([C@H]3COCCCN3c3cc(C)nc(N)n3)c(Cl)c2)C1 (stereo partly drawn) [I-218, 4-[(3S)-3-[2-chloro-4-(3-methoxypyrrolidin-1-yl)phenyl]-1,4-oxazepan-4-yl]-6-methyl-pyrimidin-2-amine]	< 0.6 µM	< 0.3 µM	< 0.6 µM
COc1ccc(OC)c([C@H]2CCCCCN2c2cc(C)nc(N)n2)c1 (single isomer, unassigned) [I-40]	< 0.6 µM	< 0.3 µM	< 0.6 µM
Cc1nc(N)nc2c1-c1c(NC3COC3)ccc(Cl)c1C1COCCCN21 (stereo not drawn) [I-309]	< 0.6 µM	< 0.3 µM	< 0.6 µM
Cc1cc(N2CCCOCC2c2ccc(C(N)=O)cc2Cl)nc(N)n1 (stereo not drawn) [I-298]	2 to 5 µM	< 0.3 µM	< 0.6 µM
Cc1cc(N2CCCOCC2c2ccc(P(C)(C)=O)cc2Cl)nc(N)n1 (racemic) [I-202, (+/−)-4-[3-(2-chloro-4-dimethylphosphoryl-phenyl)-1,4-oxazepan-4-yl]-6-methyl-pyrimidin-2-amine]	≥ 5 µM	0.3 to 1 µM	0.6 to 2 µM
Cc1cc(N2CCCOCC2c2cc(NC(=O)C3CCO3)ccc2Cl)nc(N)n1 (racemic) [I-184, (+/−)-N-[3-[4-(2-amino-6-methyl-pyrimidin-4-yl)-1,4-oxazepan-3-yl]-4-chloro-phenyl]oxetane-2-carboxamide]	2 to 5 µM	0.3 to 1 µM	< 0.6 µM
Cc1cc(N2CCCOCC2c2cc(NC(=O)CC3COC3)ccc2Cl)nc(N)n1 (racemic) [I-185, (+/−)-N-[3-[4-(2-amino-6-methyl-pyrimidin-4-yl)-1,4-oxazepan-3-yl]-4-chloro-phenyl]-2-(oxetan-3-yl)acetamide]	2 to 5 µM	0.3 to 1 µM	< 0.6 µM
Cc1cc(N2CCCOCC2c2ccc(S(=O)(=O)C3CCC3)cc2Cl)nc(N)n1 (stereo not drawn) [I-222, 4-(3-(2-chloro-4-(cyclobutylsulfonyl)phenyl)-1,4-oxazepan-4-yl)-6-methylpyrimidin-2-amine]	0.6 to 2 µM	0.3 to 1 µM	< 0.6 µM
COc1ccc(F)cc1[C@H]1COCCCN1c1cc(C)nc(N)n1 [I-288]	2 to 5 µM	< 0.3 µM	< 0.6 µM
